Experimental data reported in patent US10239840B2, “Benzoazepine derivatives” (ViiV HEALTHCARE UK LIMITED, priority 2015, dated 2019).

Tested on: HIV
Assay: MT4 assay, antiviral HIV activity
Assay type: cell-based
Conditions: MT-4 cells (HTLV-1 transformed), read-out at 96 hours with cell titer glo
Procedure: Antiviral HIV activity and cytotoxicity values for compounds of the invention from Table 1 were measured in parallel in the HTLV-1 transformed cell line MT-4 based on the method previously described (Hazen et al., 2007, In vitro antiviral activity of the novel, tyrosyl-based human immunodeficiency virus (HIV) type 1 protease inhibitor brecanavir (GW640385) in combination with other antiretrovirals and against a panel of protease inhibitor-resistant HIV (Hazen et al., “In vitro antiviral activity of the novel, tyrosyl-based human immunodeficiency virus (HIV) type 1 protease inhibitor brecanavir (GW640385) in combination with other antiretrovirals and against a panel of protease inhibitor-resistant HIV”, Antimicrob. Agents Chemother. 2007, 51: 3147-3154; and Pauwels et al., “Sensitive and rapid assay on MT-4 cells for the detection of antiviral compounds against the AIDS virus”, J. of Virological Methods 1987, 16: 171-185).
Luciferase activity was measured 96 hours later by adding a cell titer glo (Promega, Madison, Wis.). Percent inhibition of cell protection data was plotted relative to no compound control. Under the same condition, cytotoxicity of the compounds was determined using cell titer Glo™ (Promega, Madison, Wis.). IC50s were determined from a 10 point dose response curve using 3-4-fold serial dilution for each compound, which spans a concentration range >1000 fold.
These values are plotted against the molar compound concentrations using the standard four parameter logistic equation: y=((Vmax*x^n)/(K^n+x^n)+Y2
Y2=minimum γ n=slope factor
Vmax=maximum γ x=compound concentration [M]

Which IC50 does the source give for `Cc1c(-c2c(C)c3c(c(C)c2[C@H](OC(C)(C)C)C(=O)O)CCN(C(=O)C2CCCCC2)CC3)cc(F)c2c1CCCO2` (atropisomer, axis not shown; (M)) [Example 12, (S)-2-(tert-butoxy)-2-((M)-3-(cyclohexanecarbonyl)-8-(8-fluoro-5-methylchroman-6-yl)-6,9-dimethyl-2,3,4,5-tetrahydro-1H-benzo[d]azepin-7-yl)acetic Acid] here?
Its IC50 is 19 nM.
